Reference: ChEMBL document CHEMBL1201862, “PubChem BioAssay data set” (2004)
Active and inactive are the calls of the source. Cut-off read from the data, not from the text of the source, for most assays here: actives have a measured EC50 and inactives only a lower limit.

Columns and labels:
[1] = viability of uninfected HEp-2 cells – cell-based, HTS, cytotoxicity control for RSV inhibitor project, dose response (AID 2410); format: functional; details: human respiratory syncytial virus
[2] = Luminescence Cell-Based Dose Confirmation HTS to Identify Activators of 5'UTR Stem-Loop Driven Alpha-Synuclein mRNA Translation in H4 Neuroglioblastoma Cells. [Related pubchem assays: 1829 (Project Summary), 1814 (Primary HTS)]; format: functional
[3] = tested on: H4; assay: Luminescence Cell-Based Dose Response HTS to Identify Activators of 5'UTR Stem-Loop Driven Prion Protein mRNA Translation in H4 Neuroglioblastoma Cells. [Related pubchem assays: 1829 (Project Summary), 1814 (Primary HTS)]; format: functional; details: Homo sapiens
[4] = Luminescence Cell-Based Dose Response HTS to Identify Activators of Luciferase Translation or Activity in H4 […] Cells. [Related pubchem assays: 1829 (Project Summary), 1814 (Primary HTS)]; format: functional
[5] = viability of HCT116 lacking mutant beta-catenin – cell-based, human colon tumor, dose response (AID 1045); format: functional;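 note: HCT116 colon tumor cells with beta catenin knocked out; cells exposed to compound for 60 hours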
[6] = viability of PTEN-deleted HCT116 cells – cell-based, HCT116 PTEN knockout, dose response (AID 1047); format: functional;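 note: HCT116 colon tumor cells with PTEN knocked out; cells exposed to compound for 60 hours before readout; potency for loss of cell viability measured by luminescence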
[7] = NIH3T3 cell viability loss – ATP luminescence, mouse fibroblasts, counter-screen, dose response (AID 2010); format: functional, cell-based;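 note: cells exposed to compound for about 90 hours before reading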
[8] = Trypanosoma cruzi growth suppression in host cells – NIH3T3 host cells, beta-gal luminescence, confirmation (AID 2044); format: functional, cell-based;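 note: intracellular parasites grown in NIH/3T3 mouse fibroblasts as host cells; luminescent beta-galactosidase reporter signal from transgenic T. cruzi replicating inside host cells; inhibitors lower the luminescence signal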
[9] = tested on: INS1; assay: INS-1E survival protection against cytokine death – cell-based, luminescence, retest, dose response (AID 449756); format: functional; details: Rattus norvegicus;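 note: cell death triggered by IL-1 beta plus TNF-alpha plus IFN-gamma mixture; protective hits raise ATP signal compared with cytokine alone wells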
[10] = microbe, parasite or virus in culture; format: functional; details: Mycobacterium tuberculosis
[11] = fluconazole-exposed Candida albicans growth modulators – fluorescence, retest, confirmation (AID 2467); format: functional, cell-based
[12] = NIH-3T3 fibroblast cytotoxicity, dose response, cytotoxicity control, cell-based, fluorescence, Alamar Blue, secondary assay (AID 2327); format: functional;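 note: NIH-3T3 mouse fibroblasts cultured with fluconazole at 8 µg/mL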
[13] = molecular target: T1, Rac GTPase-activating protein 1 (Homo sapiens, UniProt Q9H0H5); assay: blockers of MgcRacGAP-driven Rac1 GTP hydrolysis – biochemical, ADP Hunter fluorescence, primary and confirmatory, confirmation (AID 624330); format: functional
T1 sequence (Q9H0H5 whole entry): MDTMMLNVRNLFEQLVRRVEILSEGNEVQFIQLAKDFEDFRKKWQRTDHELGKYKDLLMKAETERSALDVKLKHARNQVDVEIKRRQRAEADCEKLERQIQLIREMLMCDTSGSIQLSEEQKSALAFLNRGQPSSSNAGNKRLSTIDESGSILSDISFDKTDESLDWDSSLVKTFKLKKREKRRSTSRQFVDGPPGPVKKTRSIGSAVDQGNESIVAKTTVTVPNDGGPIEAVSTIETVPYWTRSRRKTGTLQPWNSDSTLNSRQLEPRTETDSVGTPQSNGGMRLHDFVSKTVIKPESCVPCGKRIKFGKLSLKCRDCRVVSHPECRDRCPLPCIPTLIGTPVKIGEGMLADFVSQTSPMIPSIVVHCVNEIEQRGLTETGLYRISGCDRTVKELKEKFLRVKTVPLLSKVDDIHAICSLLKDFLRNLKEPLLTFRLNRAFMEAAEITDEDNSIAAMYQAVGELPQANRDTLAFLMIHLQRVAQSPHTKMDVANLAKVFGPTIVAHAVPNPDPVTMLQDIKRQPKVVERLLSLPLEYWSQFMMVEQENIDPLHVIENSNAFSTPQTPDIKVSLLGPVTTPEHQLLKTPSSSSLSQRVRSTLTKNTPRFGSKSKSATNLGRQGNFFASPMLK

[14] = tested on: Streptococcus sp. 'group A'; assay: Streptococcus pyogenes SK(-)GAS viability under kanamycin – luminescence, BacTiterGlo, confirmation, counter-screen for streptokinase expression inhibitor project, dose response (AID 1900); format: functional, organism-based
[15] = tested on: Streptococcus; assay: GAS UMAA2166 growth inhibition – luminescence, BacTiterGlo, counter-screen for streptokinase expression inhibitor project, dose response (AID 1915); format: functional, organism-based;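 note: potency for reduction of bacterial viability or growth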
[16] = molecular target: T2, Streptokinase A (Streptococcus pyogenes serotype M1, UniProt P10520); assay: viability-normalized secreted streptokinase activity reduction – plasminogen activation absorbance, OD405, dose response (AID 1914); format: functional, Streptococcus pyogenes M1 GAS;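 note: secreted streptokinase activity via plasminogen activation per viability signal from cell pellet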
T2 sequence (P10520 whole entry): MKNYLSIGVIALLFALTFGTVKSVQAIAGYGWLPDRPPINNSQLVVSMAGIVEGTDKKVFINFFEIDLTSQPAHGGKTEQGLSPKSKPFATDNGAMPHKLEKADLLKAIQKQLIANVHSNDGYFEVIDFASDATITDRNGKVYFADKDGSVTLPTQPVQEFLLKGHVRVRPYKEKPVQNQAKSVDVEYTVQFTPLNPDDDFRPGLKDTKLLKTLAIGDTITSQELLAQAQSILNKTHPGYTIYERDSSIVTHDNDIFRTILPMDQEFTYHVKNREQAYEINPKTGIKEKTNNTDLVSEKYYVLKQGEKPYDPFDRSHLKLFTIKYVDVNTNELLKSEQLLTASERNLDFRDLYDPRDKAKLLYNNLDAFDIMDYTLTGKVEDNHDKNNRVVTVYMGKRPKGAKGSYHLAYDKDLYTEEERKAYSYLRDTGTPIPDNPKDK

[17] = Luminescence Cell-Based Dose Retest to Confirm Inhibitors of Cancer Stem Cells. [Related pubchem assays (depositor defined):AID2717, AID2721]; format: functional; details: Homo sapiens

For `Cc1ccc(/C=C/C2=NN(Cc3ccccc3Cl)C(=O)CC2)cc1`, the CC50 [1] was 16.6 µM (active).
With `Cc1c(C(=O)OCC(=O)N2C(C)CCCC2C)oc2ccccc12` (stereo unspecified) the EC50 [2] was 14.6 µM (active), the EC50 [3] was 72.9 µM (active) and the EC50 [4] was 28.7 µM (active).
In the case of `COc1ccc(C2Nc3ccc4ccccc4c3-c3c2c(=O)oc2ccccc32)cc1` (stereo unspecified), the EC50 [5] is reported as 9.13 µM (active), the EC50 [6] is reported as 9 µM (active) and the EC50 [7] is reported as > 60 µM (not active). For the same compound, the EC50 [8] was 0.204 µM (active).
For `O=C(Cn1c(=O)oc2cc(S(=O)(=O)N3CCCCC3)ccc21)N1CCc2ccccc21`, the EC50 [5] was 16.9 µM (active) and the EC50 [6] was 18.4 µM (active).
For `CC(C)C[C@H]1CN=C(Nc2ccccc2)N1CCC(C)c1ccccc1` (stereo partly specified), the AC50 [9] was 9.62 µM (active).
In the case of `Cc1ccc(C(=O)N2N=C(c3ccc(NS(C)(=O)=O)cc3)CC2c2cccs2)cc1` (stereo unspecified), the CC50 [10] is reported as > 40 µM (active).
In the case of `CCC1=NN2C(=N)/C(=C\c3ccc(OCCOc4ccccc4)c(OC)c3)C(=O)N=C2S1`, the EC50 [2] is reported as 9.45 µM (active), the EC50 [3] is reported as 5.43 µM (active) and the EC50 [4] is reported as 8.4 µM (active).
In the case of `CCn1cc(SCC(=O)N2CCOCC2)c2ccccc21`, the EC50 [2] is reported as 5.63 µM (active), the EC50 [3] is reported as > 120 µM (not active) and the EC50 [4] is reported as 82.1 µM (active).
For `CC(C)c1ccc2c(c1)CCC1C(C)(CN)CCCC21C` (stereo unspecified), the CC50 [10] was 7.48 µM (active), the EC50 [11] was > 38 µM (not active) and the EC50 [12] was 9.63 µM (inconclusive).
With `C/N=c1\scc(C)n1/N=C/c1cc(Br)c(O)c(Br)c1` the IC50 [13] was 77 µM (active).
In the case of `CSC(S)=NCc1cccnc1`, the CC50 [10] is reported as 9.84 µM (active), the EC50 [11] is reported as 1.13 µM (active) and the EC50 [12] is reported as > 160 µM (inactive).
In the case of `CC12CCC(c3c(C(=O)Nc4nccs4)nn(-c4ccccc4)c31)C2(C)C` (stereo unspecified), the EC50 [5] is reported as 24.2 µM (active), the EC50 [14] is reported as 6.56 µM (active) and the EC50 [15] is reported as > 150 µM (not active). The EC50 [6] was 38.1 µM (active) and the EC50 [16] was 28.5 µM (active).
With `CC1(C)CC(N2CCN(Cc3ccccc3)CC2)=CC(=[N+]2CCCCC2)C1` the EC50 [11] was 2.72 µM (active), the AC50 [9] was 2.16 µM (active) and the EC50 [12] was > 160 µM (inactive). The EC50 [7] was > 60 µM (not active) and the EC50 [8] was 0.289 µM (active).
In the case of `CC(C)c1ccc2[nH]c(O)c(N=NC(=O)c3cccc(S(=O)(=O)N4CCCCC4)c3)c2c1`, the CC50 [1] is reported as 7.69 µM (active), the EC50 [14] is reported as 4.39 µM (active) and the EC50 [15] is reported as 110 µM (active). The EC50 [16] was > 150 µM (not active), the EC50 [7] was > 60 µM (not active) and the EC50 [8] was 0.58 µM (active).
For `CCn1c(=O)c(C(=O)Nc2ccccn2)c(O)c2ccccc21`, the AC50 [9] was 30.2 µM (active).
In the case of `COc1ccc(C(=O)N/N=C/C(=O)c2ccccc2)cc1`, the EC50 [2] is reported as 5.67 µM (active), the EC50 [3] is reported as 6.93 µM (active) and the EC50 [4] is reported as 1.9 µM (active).
With `CN1CCN(/N=C/c2ccc(Cl)c(Cl)c2)CC1` the EC50 [2] was 34.9 µM (active), the EC50 [3] was 2.16 µM (active) and the EC50 [4] was 31.7 µM (active).
In the case of `CCOc1ccc(-c2c(=O)n(OCc3ccc([N+](=O)[O-])cc3)c3ccccc3[n+]2[O-])cc1`, the EC50 [2] is reported as > 120 µM (not active), the EC50 [3] is reported as > 120 µM (not active) and the EC50 [4] is reported as > 120 µM (not active).
With `COc1ccc(S(=O)(=O)N2CCN(C(=O)c3ccc([N+](=O)[O-])o3)CC2)cc1` the EC50 [2] was > 120 µM (not active), the EC50 [3] was 7.96 µM (active) and the EC50 [4] was 7.51 µM (active). The EC50 [7] was > 30 µM (not active) and the EC50 [8] was 0.103 µM (active).
For `O=C(NCc1ccccn1)C(=O)Nc1nc(C23CC4CC(CC(C4)C2)C3)cs1`, the CC50 [10] was 36 µM (active), the EC50 [14] was 1.66 µM (active) and the EC50 [15] was 6.91 µM (active).
With `Cc1ccc2nc(-c3cccc(-c4cccc(Cl)c4)c3)c(NCc3ccccc3)n2c1` the AC50 [17] was 4.01 µM (active) and the AC50 [9] was 7.9 µM (active).
